Measurements published in PMC9230201, “Sustained Consumption of a Decaffeinated Green Coffee Nutraceutical Has Limited Effects on Phenolic Metabolism and Bioavailability in Overweight/Obese Subjects” (Nutrients, 2022).
“And” between values parts separate entries of the source, which are not always exact repeats. Identical values can stand only once.

Tests used:
[1] = Urinary excretion of phenolic metabolites after intake of the GCPE nutraceutical; details: for Cumulative urinary excretion, Total 0–24 h / Urinary excretion: urine; for Cumulative urinary excretion, Total 0–24 h: mean ± SEM, n = 9
[2] = Plasma pharmacokinetics of phenolic metabolites after intake of the GCPE nutraceutical (LC-MS-QToF); details: for AUC(0-t): AUC0–24h; for Tmax: Tmax (h) or Range
Description: Participants attended the Human Nutrition Unit (HNU) at the Institute of Food Science, Technology and Nutrition (ICTAN-CSIC) on two consecutive days at the beginning of the intervention (week 0) and also on two consecutive days at the end of the study, after consuming daily two doses of the GCPE nutraceutical, providing 600 mg/d phenols, during two months (week 8). On each occasion, on the first visit day (Figure 1), subjects arrived at the HNU after an overnight (12 h) fast and provided a urine sample. A licensed health care professional placed an intravenous catheter in the subjects′ nondominant arm and collected a fasting blood sample (baseline, 0 h). Then, subjects drank the soluble GCPE nutraceutical dissolved in 200 mL of water. Subsequently, blood samples were collected in EDTA-coated tubes at 0.5, 1, 1.5, 2, 3, 4, 6, 8, 10, and 11 h. On the sampling days, volunteers remained at the HNU, where a (poly)phenol-free diet was provided. Half an hour after consuming the nutraceutical, volunteers ate a breakfast consisting of ham, cheese, white bread, and a yogurt. Lunch (paella, bread, and yogurt) and an afternoon snack (muffin and yogurt) were eaten 5 and 9 h, respectively, after consuming the nutraceutical. Water and isotonic beverages were freely available. Volunteers were instructed to eat a (poly)phenol-free dinner that night and to attend the HNU on the next day after a 12 h fast. Then, a final blood sample was obtained from the antecubital vein 24 h after consuming the nutraceutical. The same protocol was followed during visits at the end of the 8-week intervention. On each occasion, two days before each visit to the HNU, subjects consumed a low (poly)phenol diet free of foods containing hydroxycinnamates such as coffee, herbal teas, red wine, artichokes, whole grain cereals, vegetables, fruits and fruit juices, and dried fruits. Only banana, watermelon, cantaloupes, and potatoes were allowed.
Blood samples were immediately centrifuged (10 min, 3000 rpm, 4 °C) to obtain plasma. […] All biological samples were stored at −80 °C until analysis.
To extract plasma metabolites, 10 µL of 50% (v/v) aqueous formic acid, and 900 µL cold acetonitrile containing 50 µL of 10% (w/v) ascorbic acid were added to 400 µL defrosted plasma. Samples were vortexed and centrifuged (14,000 rpm, 10 min, 4 °C), repeating the extraction and combining the two supernatants, which were reduced to dryness under nitrogen [13]. Dried samples were resuspended in 150 µL of 0.1% aqueous formic acid (containing 10% acetonitrile acidified with 0.1% formic acid), centrifuged (15 min, 14,000 rpm, 4 °C), and the supernatant collected.
A reverse-phase Ascentis Express C18 (15 cm × 3 mm, 2.7 µm) column (Sigma-Aldrich Quimica, Madrid, Spain), preceded by a Supelco 55215-U guard column (3 mm × 5 mm, 2.7 µm), was used for separation. Mobile phase A was 0.1% formic acid in Milli-Q water, and mobile phase B was acetonitrile containing 0.1% formic acid at a 0.3 mL/min flow rate. […] Metabolites were identified based on their retention time using authentic standards when possible.

[3] = human, oral, 300 mg hydroxycinnamic acids, week 0
[4] = human, oral, 300 mg hydroxycinnamic acids, week 8
[5] = human, oral, 300 mg hydroxycinnamic acids, week 0, first peak where biphasic
[6] = human, oral, 300 mg hydroxycinnamic acids, week 8, first peak where biphasic
[7] = human, oral, 300 mg, Cmax, week 0, GCPE nutraceutical with 300 mg hydroxycinnamic acids, mean ± SEM, n = 9
[8] = human, oral, 300 mg, Cmax, week 8, GCPE nutraceutical with 300 mg hydroxycinnamic acids, mean ± SEM, n = 9
[9] = week 0, GCPE nutraceutical with 300 mg hydroxycinnamic acids, mean ± SEM, n = 9
[10] = week 0, first peak where biphasic
[11] = week 8, GCPE nutraceutical with 300 mg hydroxycinnamic acids, mean ± SEM, n = 9
[12] = week 8, first peak where biphasic

Row | SMILES | Cumulative urinary excretion, Total 0–24 h ([1]; week 0) | Cumulative urinary excretion, Total 0–24 h ([1]; week 8) | Amount excreted in urine, 0- 3 h ([1]; week 0, interval 0–3 h) [µmol] | Amount excreted in urine, 3-6 h ([1]; week 0, interval 3–6 h) [µmol] | Amount excreted in urine, 6-9 h ([1]; week 0, interval 6–9 h) [µmol] | Amount excreted in urine, 9-11 h ([1]; week 0, interval 9–11 h) [µmol] | Amount excreted in urine, 11-24 h ([1]; week 0, interval 11–24 h) [µmol] | Amount excreted in urine, 0- 3 h ([1]; week 8, interval 0–3 h) [µmol] | Amount excreted in urine, 3-6 h ([1]; week 8, interval 3–6 h) [µmol] | Amount excreted in urine, 6-9 h ([1]; week 8, interval 6–9 h) [µmol] | Amount excreted in urine, 9-11 h ([1]; week 8, interval 9–11 h) [µmol] | Amount excreted in urine, 11-24 h ([1]; week 8, interval 11–24 h) [µmol] | AUC(0-t) [2, 3] [µM·h] | AUC(0-t) [2, 4] [µM·h] | AUC0–24h ([2]; week 0) [µM/min] | Cmax [2, 9] | Tmax (h) or Range [2, 10] [h] | AUC0–24h ([2]; week 8) [µM/min] | Cmax [2, 11] | Tmax (h) or Range [2, 12] [h] | also measured
1 | COc1ccc(CCC(=O)O)cc1O [DHiFA, 3-(3′-Hydroxy-4′-methoxyphenyl) propanoic acid] | 3.7 ± 0.4 µmol | 3.2 ± 0.2 µmol | 0.26 ± 0.04 | 0.25 ± 0.08 | 1.2 ± 0.3 | 0.8 ± 0.2 | 1.2 ± 0.09 | 0.32 ± 0.07 | 0.38 ± 0.08 | 1 ± 0.2 | 0.7 ± 0.2 | 1 ± 0.2 | 0.5 ± 0.2 | 0.6 ± 0.2 |  |  |  |  |  |  | Tmax [2, 5]: 7 ± 1 h; Tmax [2, 6]: 7 ± 1 h; Cmax [2, 7]: 70 ± 20 nM; Cmax [2, 8]: 70 ± 20 nM
2 | COc1ccc(CCC(=O)O)cc1O[C@@H]1O[C@H](C(=O)O)[C@@H](O)[C@H](O)[C@H]1O [DHiFA-3′-glucuronide, 3-(4′-Methoxyphenyl)propanoic acid-3′-glucuronide] | 2.9 ± 0.5 µmol | 3.1 ± 0.7 µmol | 0.12 ± 0.04 | 0.16 ± 0.06 | 1.1 ± 0.4 | 0.7 ± 0.2 | 0.8 ± 0.2 | 0.3 ± 0.1 | 0.28 ± 0.07 | 1.1 ± 0.2 | 0.8 ± 0.4 | 0.6 ± 0.3 |  |  | 0.6 ± 0.4 | 60 ± 20 nM | 9.0 ± 0.6 | 0.7 ± 0.4 | 70 ± 30 nM | 8.1 ± 0.8 | 
3 | COc1ccc(CCC(=O)O)cc1OS(=O)(=O)O [DHiFA-3′-sulfate, 3-(4′-Methoxyphenyl)propanoic acid-3′-sulfate] | 3 ± 1 µmol | 2.6 ± 0.8 µmol | 0.18 ± 0.06 | 0.1 ± 0.04 | 0.4 ± 0.1 | 0.2 ± 0.1 | 1.9 ± 0.8 | 0.14 ± 0.04 | 0.09 ± 0.03 | 0.24 ± 0.09 | 0.11 ± 0.03 | 2 ± 0.7 |  |  | 0.3 ± 0.1 | 40 ± 10 nM | 7 ± 1 | 0.8 ± 0.5 | 110 ± 60 nM | 11.6 ± 3.2 | 
4 | COc1ccc(CCC(=O)O)cc1OC [Dihydrodimethoxycinnamic acid, 3-(3′,4′-Dimethoxyphenyl)propanoic acid] | 0.7 ± 0.2 µmol | 0.63 ± 0.08 µmol | 0.08 ± 0.02 | 0.08 ± 0.01 | 0.2 ± 0.1 | 0.09 ± 0.02 | 0.27 ± 0.06 | 0.08 ± 0.01 | 0.06 ± 0.01 | 0.12 ± 0.03 | 0.12 ± 0.04 | 0.25 ± 0.05 | 1.2 ± 0.1 | 1.3 ± 0.1 |  |  |  |  |  |  | Tmax [2, 5]: 4 ± 1 h; Tmax [2, 6]: 10 ± 4 h; Cmax [2, 7]: 110 ± 20 nM; Cmax [2, 8]: 120 ± 10 nM
5 | COc1cc(C=CC(=O)O)ccc1OC1OC(C(=O)O)C(O)C(O)C1O (stereo not shown) [FA-4′-glucuronide, 3′-Methoxycinnamic acid-4′-glucuronide] | 3.4 ± 0.4 µmol | 3.7 ± 0.5 µmol | 0.5 ± 0.1 | 0.42 ± 0.07 | 0.7 ± 0.2 | 0.44 ± 0.09 | 1.3 ± 0.3 | 0.6 ± 0.1 | 0.37 ± 0.05 | 0.8 ± 0.1 | 0.8 ± 0.3 | 1.3 ± 0.2 |  |  | 0.06 ± 0.01 | 16 ± 9 nM | 1.2 ± 0.3 | 0.063 ± 0.02 | 9 ± 2 nM | 1.2 ± 0.3 | Tmax, second peak ([2]; week 0, biphasic profile): 4.7 ± 0.3 h
6 | COc1cc(C=CC(=O)O)ccc1OS(=O)(=O)O [FA-4′-sulfate, 3′-Methoxycinnamic acid-4′-sulfate] | 32 µmol and 32 ± 5 µmol | 33 µmol and 33 ± 5 µmol | 5 ± 2 | 3.2 ± 0.9 | 7 ± 2 | 3.6 ± 0.7 | 13 ± 2 | 4 ± 2 | 3.4 ± 0.7 | 7 ± 1 | 7 ± 2 | 11 ± 2 |  |  | 0.11 ± 0.03 | 17 ± 4 nM | 0.78 ± 0.09 | 0.13 ± 0.02 | 17 ± 4 nM | 0.56 ± 0.06 | Urinary excretion ([1]; week 0): 32 µmol/24 h; Urinary excretion ([1]; week 8): 33 µmol/24 h; Tmax, second peak ([2]; week 0, biphasic profile): 6.8 ± 0.7 h; Tmax, second peak ([2]; week 8, biphasic profile): 7.2 ± 0.6 h
7 | COc1cc(/C=C/C(=O)NCC(=O)O)ccc1O [Feruloylglycine] | 19 ± 5 µmol | 25 ± 5 µmol | 1 ± 0.2 | 0.9 ± 0.3 | 4 ± 1 | 2.6 ± 0.9 | 3.9 ± 0.9 | 1 ± 0.3 | 1.2 ± 0.3 | 3 ± 1 | 3 ± 1 | 3 ± 1 |  |  | 0.029 ± 0.007 | Traces ^b | 7 ± 1 | 0.026 ± 0.004 | Traces ^b | 8.4 ± 0.6 | Cumulative urinary excretion, Total 0–24 h ([1]; week 0, listed as feruloylglycine): 19 µmol; Cumulative urinary excretion, Total 0–24 h ([1]; week 8, listed as feruloylglycine): 25 µmol; Amount excreted in urine, TOTAL ([1]; week 0, Table S5 total): 19 ± 5 µmol; Amount excreted in urine, 0 h ([1]; week 8, 0 h (before intake on sampling day)): 14 ± 4 µmol; Amount excreted in urine, TOTAL ([1]; week 8, Table S6 total): 25 ± 5 µmol; Cmax ([2]; weeks 0 and 8 not distinguished): trace levels
8 | COc1ccc(/C=C/C(=O)O)cc1O [iFA, 3′-Hydroxy-4′-methoxycinnamic acid] | 1.7 ± 0.2 µmol | 2.1 ± 0.2 µmol | 1 ± 0.2 | 0.35 ± 0.07 | 0.27 ± 0.07 | 0.04 ± 0.03 | 0.04 ± 0.02 | 1.2 ± 0.2 | 0.32 ± 0.04 | 0.39 ± 0.07 | 0.13 ± 0.07 | 0.09 ± 0.04 | 0.025 ± 0.007 | 0.043 ± 0.008 |  |  |  |  |  |  | Tmax [2, 5]: 0.5 ± 0.1 h; Tmax [2, 6]: 0.5 h; AUC(0-t) ([2]; human, oral, 300 mg phenols, week 0): 0.025 µM·h; AUC(0-t) ([2]; human, oral, 300 mg phenols, week 8): 0.043 µM·h; Cmax [2, 7]: 23 ± 6 nM; Cmax [2, 8]: 32 ± 7 nM
